Laboratory results: ChEMBL document CHEMBL5518245, “Development of an Imidazopyridazine-Based MNK1/2 Inhibitor for the Treatment of Lymphoma” (J Med Chem, 2024)
Each block holds one molecule with its values, some of them ahead of it.

Tests used:
[1] = molecular target: Voltage-gated inwardly rectifying potassium channel KCNH2 (Homo sapiens, UniProt Q12809)
in vitro [2] = conditions: human, liver microsomes
in vitro [3] = conditions: dog, liver microsomes
in vitro [4] = conditions: rat, liver microsomes
LN-18 = test: Antiproliferative activity against human LN-18 cells assessed as inhibition of cell growth incubated for 72 hrs MTS assay; type: functional, cell-based; conditions: LN-18, 72 h
TMD8 [5] = test: Antitumor activity against human TMD8 cells xenografted in mouse assessed as tumor growth inhibition at 10 mg/kg, po; type: functional; conditions: read-out: TGI
TMD8 [6] = test: cells; conditions: Homo sapiens, TMD8, 72 h
DOHH-2 = test: cells; conditions: Homo sapiens, DOHH-2, 72 h
HT-29 = test: cells; conditions: Homo sapiens, HT-29, 72 h
PC-3 = test: cells; conditions: Homo sapiens, PC-3, 72 h
A549 = test: cells; conditions: Homo sapiens, A549, 72 h
PANC-1 = test: cells; conditions: Homo sapiens, PANC-1, 72 h
MDA-MB-231 = test: cells; conditions: Homo sapiens, MDA-MB-231, 72 h

Chain of Voltage-gated inwardly rectifying potassium channel KCNH2 (Q12809 whole entry): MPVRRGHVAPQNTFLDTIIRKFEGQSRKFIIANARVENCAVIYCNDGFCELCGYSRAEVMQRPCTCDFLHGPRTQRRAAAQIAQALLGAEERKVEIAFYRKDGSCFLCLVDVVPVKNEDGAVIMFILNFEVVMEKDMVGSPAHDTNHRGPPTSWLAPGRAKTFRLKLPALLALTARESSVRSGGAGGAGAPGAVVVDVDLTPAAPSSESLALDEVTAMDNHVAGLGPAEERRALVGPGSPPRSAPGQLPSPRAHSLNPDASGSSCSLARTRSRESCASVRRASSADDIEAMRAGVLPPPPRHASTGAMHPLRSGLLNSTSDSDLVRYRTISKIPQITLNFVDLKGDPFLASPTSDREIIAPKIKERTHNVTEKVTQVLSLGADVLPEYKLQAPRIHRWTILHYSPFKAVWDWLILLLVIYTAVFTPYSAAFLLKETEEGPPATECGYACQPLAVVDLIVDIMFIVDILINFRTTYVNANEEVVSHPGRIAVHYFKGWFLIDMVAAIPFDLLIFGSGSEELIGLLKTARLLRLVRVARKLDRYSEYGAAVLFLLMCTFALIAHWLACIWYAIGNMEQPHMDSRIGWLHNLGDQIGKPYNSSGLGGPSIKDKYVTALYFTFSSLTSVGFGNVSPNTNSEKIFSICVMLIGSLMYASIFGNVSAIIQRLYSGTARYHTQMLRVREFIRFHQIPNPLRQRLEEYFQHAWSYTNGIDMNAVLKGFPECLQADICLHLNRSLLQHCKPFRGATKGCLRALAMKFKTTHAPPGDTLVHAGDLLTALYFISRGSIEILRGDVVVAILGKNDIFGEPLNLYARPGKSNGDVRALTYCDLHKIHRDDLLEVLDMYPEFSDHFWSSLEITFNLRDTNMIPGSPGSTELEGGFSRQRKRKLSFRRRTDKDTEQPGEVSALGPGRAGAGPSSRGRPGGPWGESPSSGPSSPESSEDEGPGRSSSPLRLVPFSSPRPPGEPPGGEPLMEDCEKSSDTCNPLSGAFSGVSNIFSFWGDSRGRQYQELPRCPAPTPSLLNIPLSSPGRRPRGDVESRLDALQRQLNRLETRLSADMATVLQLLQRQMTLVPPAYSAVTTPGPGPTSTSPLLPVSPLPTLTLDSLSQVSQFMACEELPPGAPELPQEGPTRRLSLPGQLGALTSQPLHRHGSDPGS

Compound: NC1CCN(C(=O)c2ccc(-c3ccc4ncc(-c5cc6ccccc6o5)n4c3)cc2)CC1
IC50 [1]: 4.4 µM

Compound: N[C@H]1CCCN(C(=O)c2ccc(-c3ccc4ncc(-c5cc6ccccc6o5)n4n3)cc2)C1
IC50 [1]: > 30 µM

Compound: CN(C)C1CCN(C(=O)c2ccc(-c3ccc4ncc(-c5cc6ccccc6o5)n4c3)cc2)CC1
IC50 [1]: 1.03 µM

Compound: O=C(c1ccc(-c2ccc3ncc(-c4cc5ccccc5o4)n3n2)cc1)N1CCC(N2CCCCC2)CC1
IC50 [1]: > 30 µM

Compound: O=C(c1ccc(-c2ccc3ncc(-c4cc5ccccc5o4)n3n2)cc1)N1CCOCC1
IC50 [1]: > 30 µM

Compound: N[C@@H]1CCCN(C(=O)c2ccc(-c3ccc4ncc(-c5cc6ccccc6o5)n4n3)cc2)C1
IC50 [1]: 5.82 µM

Compound: N[C@@H]1CCCN(C(=O)c2ccc(-c3ccc4ncc(-c5cc6ccccc6o5)n4c3)cc2)C1
IC50 [1]: 4.66 µM

Compound: CN(C)C1CCN(C(=O)c2ccc(-c3ccc4ncc(-c5cc6ccccc6o5)n4n3)cc2)CC1
IC50 [1]: 2.97 µM

Compound: NC1CCN(C(=O)c2ccc(-c3ccc4ncc(-c5cc6ccccc6o5)n4n3)cc2)CC1
IC50 [1]: 7.98 µM

half-life (in vitro [2]): 1.12 h
half-life (in vitro [3]): 1.39 h
half-life (in vitro [4]): 0.302 h
Compound: N#Cc1ccc(-c2cnc3ccc(-c4ccc(C(=O)N5CCOCC5)cc4)cn23)cc1 [TINODASERTIB]

IC50 (TMD8 [6]): > 50 µM
IC50 (DOHH-2): 6.3 µM
IC50 (HT-29): > 50 µM
IC50 (PC-3): 29.4 µM
IC50 (A549): > 50 µM
IC50 (PANC-1): > 50 µM
IC50 (MDA-MB-231): 45 µM
half-life (in vitro [2]): > 2 h
half-life (in vitro [3]): > 2 h
half-life (in vitro [4]): > 2 h
Compound: Cc1cc(Nc2cc(N)ncn2)c(=O)n2c1C(=O)NC21CCCCC1 [TOMIVOSERTIB]
IC50 (LN-18): 6.27 µM
inhibition in vivo at 10 mg/kg (TMD8 [5]): 75%
IC50 [1]: > 30 µM
